This passage reports Kd results from PubChem BioAssay AID1495 (Sanford-Burnham Center for Chemical Genomics, 2009).

Each structure is given as a SMILES string.

One assay deals with Chaperone protein DnaK (Escherichia coli) (UniProt C3TRK2). Kind of assay: DnaK beta-domain binding affinity, SAR follow-up, orthogonal assay for DnaK modulator project, biophysical, isothermal titration calorimetry, full-length DnaK (AID 1495). Conditions: purified DnaK, measured here: ATP Kd, compound-saturated DnaK.
In the case of `O=C(NCc1cccc2ccsc12)c1cccs1`, the Kd (usually the constant that tells how readily two partners part at equilibrium) was found to be 2.5 µM.

Staying with this assay, now noted: purified DnaK, measured here: Kd to DnaK substrate-binding domain.
In the case of `Cc1ccc(C(=O)NCc2ccc(Cl)cc2)o1`, the Kd came out at 19.3 µM.

The compound `O=C(NCc1ccccc1Br)c1cccs1` had a Kd of 14.3 µM. Regarding `Cc1ccc(CNC(=O)c2ccc([N+](=O)[O-])o2)cc1`, the Kd was 25 µM. Same read-out and setting: in the case of `O=C(Nc1ncc2ccccc2n1)c1cccs1` it was 1.5 µM. Still for that read-out and setting: to `CC(Cc1ccc(F)cc1)NC(=O)c1cccs1` (stereo not given) belongs 13.7 µM; to `O=C(NCc1cccc2ccccc12)c1cccs1`, 1 µM. The same measure, in the same setting: in the case of `O=C(NCc1ccccc1F)c1cccs1` it was 64.1 µM; in that of `O=C(Nc1ccc2[nH]ccc2c1)c1cccs1`, 4.9 µM. Compound `Cc1ccc(C(=O)NCc2ccc(F)cc2)o1` yielded a dissociation constant (Kd) of 47.6 µM.

The assay is the same for the next values; noted with them: purified DnaK, measured here: substrate peptide Kd, compound-saturated DnaK.
Take `O=C(NCc1ccc(Cl)c(Cl)c1)c1cccs1`: the Kd is 0.6 µM. That is a sub-micromolar value. Still for that read-out and setting: in the case of `O=C(c1cccs1)N1CCN(CCO)CC1` it was 7.9 µM; in that of `CC(Cc1ccc(F)cc1)NC(=O)c1cccs1` (stereo not given), 0.2 µM. On the same count and under the same terms, to `O=C(NCc1ccccc1O)c1cccs1` belongs 1.2 µM; to `O=C(Nc1ccc2[nH]ccc2c1)c1cccs1`, 2.2 µM.
